The structures appear in SMILES notation.

What all share (type): in vivo, mice (C57BL/6)
Experiment [1] concerns chronic monophasic EAE disease in mice. The experiment is described as follows: motor coordination and hind-limb strength: ability of EAE mice to cross a horizontal bar. The conditions noted are these: EAE diseased mice, within 4 treatments; FIG. 3. On the procedure:
(§1) To assess the potential of these compounds in vivo, a chronic monophasic EAE disease in mice was induced before treatment with the new chemical entity (NCE). EAE Disease was induced in 8-10 week old female mice (C57BL/6) by subcutaneous (s.c.) injection of 200 μl emulsion containing 150 μg […] peptide (Genscript) in Complete Freund's Adjuvant (CFA; containing 5 mg/ml heat-inactivated Mycobacterium tuberculosis). On the same day, mice were administered 500 ng Pertussis Toxin (Kaketsuken, Japan) intraperitoneally (i.p.) and again two days later. Disease severity was recorded every 24 hours: 0-Normal; 1-flaccid tail; 2-imparied/wobbly gait; 3-complete hind limb weakness; 4-hind limb and forelimb paralysis; 5-moribund state/dead. Protocol is based on the Nature Protocols for Active induction of experimental allergic encephalomyelitis, which includes the scoring methodology: • Stromnes I M, Goverman J M (2006) Active induction of experimental allergic encephalomyelitis. Nat Protoc. 1(4):1810-9.
(§2) This contrasts with the sustained drop in body weight of non-treated EAE diseased animals to a level 86.4% that of controls at 21 dpi (17.8 grams versus 20.6 grams). Motor coordination and hind-limb strength were also evaluated by the ability of mice to cross a horizontal bar (FIG. 3). Non-diseased animals crossed the bar with an average time of 4.3±0.57 seconds.

The nature of experiment [2]: body weight of EAE diseased mice. Conditions: treated EAE animals, FIG. 2. The method, then:
as §1, §2

Experiment [3] deals with chronic monophasic EAE disease in mice. Kind of experiment: chronic monophasic EAE disease in mice, EAE score (disease severity). The conditions noted are these: FIG. 1. The method, then:
as §1
The EAE score relates to an assessment of disease progression with respect to issues like tail paralysis and limb paralysis, a higher score is a worse condition. A score of 1 indicates decreased tail tone, a score of 2 indicates hind leg weakness (paraparesis), a score of 3 indicates hind limb paralysis and/or incontinence. Note that the untreated animals have a continuous and progressive worsening of disease.

As to `Cl.Nc1nc2[nH]cc(CNCCCc3ccccc3)c2c(=O)[nH]1` [Compound I, N-((2-amino-4-oxo-4,7-dihydro-3H-pyrrolo[2,3-d]pyrimidin-5-yl)methyl)-3-phenylpropan-1-aminium chloride], in experiment [1], the “performance crossing a horizontal bar” value is on record as “fully restored the performance of EAE diseased mice to control levels”. In experiment [2] (21 dpi, controls 20.6 grams), this compound displayed a body weight of 19.9 grams. For the same compound, the “body weight level relative to controls” value in experiment [2] (21 days post inoculation (dpi)) is 96.6%. The “EAE scoring after treatment” value in experiment [3] (30 mg/kg, i.p., after 4 daily treatments) is “disease free”. Also, the “time to reversal of symptoms (EAE score)” value in experiment [3] (highest dosage given, 30 mg/kg, i.p.) is ≤ 24 h. Also, the “disease progression (EAE score)” value in experiment [3] (lower doses, animals slower to respond) is “halted and reversed”.

The values are drawn from patent US11518765B2, “Substituted pyrimidine derivatives useful in the treatment of autoimmune diseases” (THE PROVOST, FELLOWS, FOUNDATION SCHOLARS, AND THE OTHER …, priority 2015, dated 2022).
